Reference: ChEMBL document CHEMBL1201862, “PubChem BioAssay data set” (2004)
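Step 1: Grow cells in 96-well plates. Step 2: Expose to compound for 48 hours at 5 concentrations. Step 3: Interpolate endpoints linearly; if unreached, use highest concentration. GI50: concentration for 50% inhibition of growth.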 Active and inactive are the calls of the source. Rule as the data show it: active = GI50 up to about 1.1 µM and inactive = higher.

How the values were obtained:
Test in all cases: NCI tumour cell line growth inhibition, 48 h
[1] = system: DLD-1
[2] = system: DMS-114
[3] = system: DMS-273
[4] = system: LXFL 529
[5] = system: M19-MEL
[6] = system: SNB-78
[7] = system: XF498
[8] = system: HOP-18
[9] = system: RXF 631

Compound	GI50 [1]	GI50 [2]	GI50 [3]	GI50 [4]	GI50 [5]	GI50 [6]	GI50 [7]	GI50 [8]	GI50 [9]
COc1c(C)c2c(c(C)c1Cl)Oc1c(C=O)c(O)c(Cl)c(C)c1C(=O)O2	27.7 µM (inactive)	23.3 µM (inactive)	22.4 µM (inactive)	28.1 µM (inactive)	31.3 µM (inactive)	18.2 µM (inactive)	2.66 µM (inactive)	–	–
Cc1cc([N+](=O)[O-])c(C)c2c1[nH]c1ccc(/C(CCC3CCCC3)=N\N)cc12	–	17.6 µM (inactive)	20.2 µM (inactive)	–	19 µM (inactive)	36.5 µM (inactive)	14.7 µM (inactive)	11 µM (inactive)	–
CC1=C(C(=O)Nc2ccccc2C)C(/C=C/c2ccccc2)C(C(=O)Nc2ccccc2C)=C(C)N1	> 100 µM (inactive)	–	> 100 µM (inactive)	> 100 µM (inactive)	> 100 µM (inactive)	> 100 µM (inactive)	> 100 µM (inactive)	> 100 µM (inactive)	> 100 µM (inactive)
COc1cc(C2C(Cl)C(=O)N2NC(=O)c2ccc(N)cc2)cc(Br)c1O (centres undefined)	19 µM (inactive)	6.35 µM (inactive)	18 µM (inactive)	3.15 µM (inactive)	17.9 µM (inactive)	17.5 µM (inactive)	17 µM (inactive)	–	–
COC(=O)c1ccc(NCc2cc(O)ccc2O)cc1	18.1 µM (inactive)	3.52 µM (inactive)	24.7 µM (inactive)	5.06 µM (inactive)	16.7 µM (inactive)	15.2 µM (inactive)	2.96 µM (inactive)	14.2 µM (inactive)	–
CC12CC(Sc3ccccc3N1)c1ccccc1O2 (centres undefined)	15.2 µM (inactive)	15.6 µM (inactive)	16.3 µM (inactive)	15.2 µM (inactive)	16.7 µM (inactive)	16.5 µM (inactive)	16.3 µM (inactive)	14.1 µM (inactive)	15.1 µM (inactive)
O=C(/C=C\c1ccc(Cl)c(Cl)c1)c1ccc(Cl)cc1Cl	5.41 µM (inactive)	> 10 µM (inactive)	10.4 µM (inactive)	2.26 µM (inactive)	18.7 µM (inactive)	> 10 µM (inactive)	–	> 10 µM (inactive)	35.9 µM (inactive)
CN1CCN2c3ccccc3CC(C#N)(C#N)C2C1 (centres undefined)	> 100 µM (inactive)	> 100 µM (inactive)	> 100 µM (inactive)	> 100 µM (inactive)	> 100 µM (inactive)	> 100 µM (inactive)	–	> 100 µM (inactive)	> 100 µM (inactive)
CC[P+](C)(C)CC	> 100 µM (inactive)	> 100 µM (inactive)	> 100 µM (inactive)	> 100 µM (inactive)	> 100 µM (inactive)	> 100 µM (inactive)	–	> 100 µM (inactive)	> 100 µM (inactive)
C[C@H](NC(=O)n1c2ccccc2c2ccccc21)C(=O)O	> 100 µM (inactive)	> 100 µM (inactive)	> 100 µM (inactive)	> 100 µM (inactive)	> 100 µM (inactive)	–	–	> 100 µM (inactive)	> 100 µM (inactive)
O=C(O)/C(=C/c1ccccc1[N+](=O)[O-])c1cccs1	> 100 µM (inactive)	–	> 100 µM (inactive)	> 100 µM (inactive)	> 100 µM (inactive)	> 100 µM (inactive)	> 100 µM (inactive)	> 100 µM (inactive)	> 100 µM (inactive)
CCOC(=O)C(=O)Nc1ccccc1C(F)(F)F	> 100 µM (inactive)	–	> 100 µM (inactive)	> 100 µM (inactive)	–	> 100 µM (inactive)	> 100 µM (inactive)	0.9 µM (active)	–
O=C1Nc2ccccc2C12CCCC2	> 100 µM (inactive)	> 100 µM (inactive)	> 100 µM (inactive)	> 100 µM (inactive)	> 100 µM (inactive)	> 100 µM (inactive)	> 100 µM (inactive)	> 100 µM (inactive)	–
O=C(O)COc1ccc2c3c1C(=O)CCC3CO2 (centres undefined)	> 100 µM (inactive)	> 100 µM (inactive)	> 100 µM (inactive)	> 100 µM (inactive)	> 100 µM (inactive)	> 100 µM (inactive)	> 100 µM (inactive)	> 100 µM (inactive)	–
CC(C)(C)N1CC2(CCCCC2)C1=O	> 100 µM (inactive)	> 100 µM (inactive)	> 100 µM (inactive)	–	> 100 µM (inactive)	> 100 µM (inactive)	–	> 100 µM (inactive)	–
O=C(O)[C@@H](NS(=O)(=O)c1ccc([N+](=O)[O-])cc1)c1ccccc1	> 100 µM (inactive)	–	> 100 µM (inactive)	> 100 µM (inactive)	> 100 µM (inactive)	–	> 100 µM (inactive)	> 100 µM (inactive)	> 100 µM (inactive)
C[C@H](C(=O)C12CC3CC(CC(C3)C1)C2)[C@H](O)c1ccccc1	45.5 µM (inactive)	–	–	43.8 µM (inactive)	–	31.6 µM (inactive)	26 µM (inactive)	98.9 µM (inactive)	31.2 µM (inactive)
O=C1C=CC(=O)c2c1c1c(c3c2C2c4ccccc4C3c3ccccc32)C2c3ccccc3C1c1ccccc12	0.982 µM (active)	1.95 µM (inactive)	2.11 µM (inactive)	1.08 µM (active)	1.98 µM (inactive)	1.81 µM (inactive)	1.75 µM (inactive)	–	–
Cc1c(Cl)cccc1NC(=O)c1cccc([N+](=O)[O-])c1O	21.4 µM (inactive)	11.5 µM (inactive)	12.4 µM (inactive)	11.3 µM (inactive)	13.8 µM (inactive)	34.1 µM (inactive)	16.3 µM (inactive)	2.7 µM (inactive)	13.8 µM (inactive)
O=C1/C=C(/c2ccc(O)cc2)[C@@H](OC2OC(CO)C(O)C(O)C2O)Cc2ccc(O)cc2O1.O=C1/C=C(/c2ccc(O)cc2)[C@H](O)Cc2ccc(O[C@@H]3OC(CO)C(O)C(O)C3O)cc2O1 (some centres undefined)	> 100 µM (inactive)	> 100 µM (inactive)	–	> 100 µM (inactive)	> 100 µM (inactive)	> 100 µM (inactive)	–	–	> 100 µM (inactive)
CC(C)=C1CCC(CN2CCCC2)C1=O (centres undefined)	17.3 µM (inactive)	20.4 µM (inactive)	39.4 µM (inactive)	18 µM (inactive)	20.6 µM (inactive)	> 100 µM (inactive)	19.1 µM (inactive)	17.5 µM (inactive)	> 100 µM (inactive)
O=C(C(=O)c1ccc(Cc2ccc(C(=O)C(=O)c3ccccc3)cc2)cc1)c1ccccc1	> 100 µM (inactive)	> 100 µM (inactive)	> 100 µM (inactive)	> 100 µM (inactive)	> 100 µM (inactive)	> 100 µM (inactive)	–	> 100 µM (inactive)	> 100 µM (inactive)
C=C1C(=O)O[C@H](c2ccoc2)C[C@@H]1[C@@]1(C)CCCC2(C)C(=O)OCC21 (some centres undefined)	–	> 100 µM (inactive)	> 100 µM (inactive)	> 100 µM (inactive)	> 100 µM (inactive)	> 100 µM (inactive)	> 100 µM (inactive)	–	–
Cn1c2c(c3ccccc31)CCN(CCCCN1CCc3c(n(C)c4ccccc34)C1=O)C2	> 100 µM (inactive)	73.1 µM (inactive)	> 100 µM (inactive)	> 100 µM (inactive)	> 100 µM (inactive)	> 100 µM (inactive)	> 100 µM (inactive)	> 100 µM (inactive)	> 100 µM (inactive)
CC(=O)OC1CCn2nnc(COC(=O)NC(C)C)c21 (centres undefined)	> 100 µM (inactive)	> 100 µM (inactive)	–	> 100 µM (inactive)	–	> 100 µM (inactive)	> 100 µM (inactive)	> 100 µM (inactive)	> 100 µM (inactive)
CN(C)CCC(=O)N1CCc2c([nH]c3ccccc23)C1c1cccnc1 (centres undefined)	> 100 µM (inactive)	> 100 µM (inactive)	> 100 µM (inactive)	34.9 µM (inactive)	> 100 µM (inactive)	> 100 µM (inactive)	> 100 µM (inactive)	> 100 µM (inactive)	> 100 µM (inactive)
Nc1nc(CCC(=O)Nc2cccc(C(F)(F)F)c2)cc(-c2cccc3ccccc23)n1	> 100 µM (inactive)	> 100 µM (inactive)	> 100 µM (inactive)	> 100 µM (inactive)	> 100 µM (inactive)	> 100 µM (inactive)	> 100 µM (inactive)	> 100 µM (inactive)	> 100 µM (inactive)
